Each compound was assayed against Human Factor D (purified from human serum) (Homo sapiens (Human), UniProt P00746) (assay: Human Factor D Assay). Conditions: Human Factor D 80 nM, substrate Z-L-Lys-SBzl, assay of Example 2; read-out: IC50 (Stars).
Human Factor D (purified from human serum), sequence (P00746 26-253): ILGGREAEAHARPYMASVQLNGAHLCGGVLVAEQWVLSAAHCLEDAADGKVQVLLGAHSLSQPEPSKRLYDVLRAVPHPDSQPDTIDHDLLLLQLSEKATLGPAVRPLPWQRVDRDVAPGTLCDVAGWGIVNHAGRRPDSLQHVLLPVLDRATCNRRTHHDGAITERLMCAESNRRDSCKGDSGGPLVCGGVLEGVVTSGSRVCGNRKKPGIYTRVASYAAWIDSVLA
Assay type: biochemical
Experimental: The assay of Example 2 was used to determine the IC50's of the compounds. Other standard Factor D inhibition assays are also available.
Human Factor D (purified from human serum, Complement Technology, Inc.) at 80 nM final concentration is incubated with test compound at various concentrations for 5 min at room temperature in 50 mM Tris, 1M NaCl, pH 7.5. A synthetic substrate Z-L-Lys-SBzl and DTNB (Ellman's reagent) are added to final concentrations of 100 μM each. Absorbance at 405 nm (A405) is recorded at 30 second intervals for 30 minutes using a microplate spectrophotometer. IC50 values are calculated by nonlinear regression of Complement Factor D reaction rates as a function of test compound concentration.
For “(41R,43S,45R)-42-(2-(3-acetyl-5-(2-methylpyrimidin-5-yl)-1H-indazol-1-yl)acetyl)-16-bromo-6-methyl-7-thia-42,6-diaza-1(2,3)-pyridina-4(3,5)-bicyclo[3.1.0]hexanacycloundecaphan-10-en-3-one 7,7-dioxide [Compound T-17]”, the IC50 was < 1000 nM.

Same assay, conditions: Human Factor D 80 nM, substrate Z-L-Lys-SBzl; Table 6; read-out: IC50
For `CC(=O)c1nn2c3c(cc(-c4cnc(C)nc4)cc13)CCCCCCC(=O)NC[C@@]13C[C@@H](C(=O)Nc4cc(Br)ccc4C4CC4)N(C(=O)C2)[C@@H]1C3` [Compound T-212, (41R,43S,45R)-13-acetyl-N-(6-bromo-3-cyclopropylpyridin-2-yl)-15-(2-methylpyrimidin-5-yl)-3,7-dioxo-11H-42,6-diaza-1(1,7)-indazola-4(2,5)-bicyclo[3.1.0]hexanacyclotridecaphane-43-carboxamide], the IC50 was < 1000 nM. For `CC(=O)c1nn2c3c(cc(-c4cnc(C)nc4)cc13)CCCCCCC(=O)NC[C@@]13C[C@@H](C(=O)Nc4nc(Br)ccc4F)N(C(=O)C2)[C@@H]1C3` [Compound T-230, (41R,43S,45R)-13-acetyl-N-(6-bromo-3-fluoropyridin-2-yl)-15-(2-methylpyrimidin-5-yl)-3,7-dioxo-11H-42,6-diaza-1(1,7)-indazola-4(2,5)-bicyclo[3.1.0]hexanacyclotridecaphane-43-carboxamide], the IC50 was < 1000 nM. `CC(=O)c1nn2c3c(cc(-c4cnc(C)cn4)cc13)CC=CCCCC(=O)NC[C@@]13C[C@@H](C(=O)Nc4nc(C(F)(F)F)ccc4C)N(C(=O)C2)[C@@H]1C3` [Compound T-219, (41R,43S,45R)-13-acetyl-N-(3-methyl-6-(trifluoromethyl)pyridin-2-yl)-15-(5-methylpyrazin-2-yl)-3,7-dioxo-11H-42,6-diaza-1(1,7)-indazola-4(2,5)-bicyclo[3.1.0]hexanacyclotridecaphan-11-ene-43-carboxamide] was tested, and the IC50 was < 1000 nM.

Same assay, conditions: Human Factor D 80 nM, substrate Z-L-Lys-SBzl; Table 6; read-out: IC50 (Stars)
In the case of `CC(=O)c1cn2c3c(cc(-c4cnc(C)nc4)cc13)CCCCCCC(=O)NC[C@@]13C[C@@H](C(=O)Nc4nc(C(F)(F)F)ccc4C)N(C(=O)C2)[C@@H]1C3` [Compound T-159, (41R,43S,45R)-13-acetyl-N-(3-methyl-6-(trifluoromethyl)pyridin-2-yl)-15-(2-methylpyrimidin-5-yl)-3,7-dioxo-11H-42,6-diaza-1(1,7)-indola-4(2,5)-bicyclo[3.1.0]hexanacyclotridecaphane-43-carboxamide], the IC50 is reported as < 1000 nM. For `CC(=O)c1nn2c3c(nc(-c4cnc(C)nc4)cc13)CCCCCC(=O)NC[C@@]13C[C@@H](C(=O)Nc4nc(C(F)(F)F)ccc4C)N(C(=O)C2)[C@@H]1C3` [Compound T-124, (41R,43S,45R)-13-acetyl-N-(3-methyl-6-(trifluoromethyl)pyridin-2-yl)-15-(2-methylpyrimidin-5-yl)-3,7-dioxo-11H-42,6-diaza-1(1,7)-pyrazolo[3,4-c]pyridina-4(2,5)-bicyclo[3.1.0]hexanacyclododecaphane-43-carboxamide], the IC50 was < 1000 nM. With `CC(=O)c1nn2c3c(cc(-c4cnc(C)nc4)cc13)CCCCCC(C)(C)C(=O)N(C)C[C@@]13C[C@@H](C(=O)Nc4nc(C(F)(F)F)ccc4C)N(C(=O)C2)[C@@H]1C3` [Compound T-186, (41R,43S,45R)-13-acetyl-6,8,8-trimethyl-N-(3-methyl-6-(trifluoromethyl)pyridin-2-yl)-15-(2-methylpyrimidin-5-yl)-3,7-dioxo-11H-42,6-diaza-1(1,7)-indazola-4(2,5)-bicyclo[3.1.0]hexanacyclotridecaphane-43-carboxamide] the IC50 was < 1000 nM. In the case of `CC(=O)c1nn2c3c(nc(-c4cnc(C)nc4)cc13)CCCCCCC(=O)NC[C@@]13C[C@@H](C(=O)Nc4nc(Br)ccc4C)N(C(=O)C2)[C@@H]1C3` [Compound T-166, (41R,43S,45R)-13-acetyl-N-(6-bromo-3-methylpyridin-2-yl)-15-(2-methylpyrimidin-5-yl)-3,7-dioxo-11H-42,6-diaza-1(1,7)-pyrazolo[3,4-c]pyridina-4(2,5)-bicyclo[3.1.0]hexanacyclotridecaphane-43-carboxamide], the IC50 is reported as < 1000 nM. `Cc1ncc(-c2cc3c(C#N)nn4c3c(n2)CCCC=CCOC[C@@]23C[C@@H](C(=O)Nc5nc(C(F)(F)F)ccc5C)N(C(=O)C4)[C@@H]2C3)cn1` [Compound T-154, (41R,43S,45S)-13-cyano-N-(3-methyl-6-(trifluoromethyl)pyridin-2-yl)-15-(2-methylpyrimidin-5-yl)-3-oxo-11H-6-oxa-42-aza-1(1,7)-pyrazolo[3,4-c]pyridina-4(2,5)-bicyclo[3.1.0]hexanacyclododecaphan-8-ene-43-carboxamide] was tested, and the IC50 was < 1000 nM.
